Counter-ions that a name gives are not always drawn.
Columns and labels:
HepG2 cells [1] = test: Measurement of gluconeogenesis (14C-lactate); format: cell-based; conditions: 24 h treatment, lower is better
Method: (§1) Metformin that is widely used in type 2 diabetic patients inhibits the formation of glucose, the synthesis of cholesterol and triglyceride in liver cells and promote the absorption of glucose from blood vessels in the muscle cells. […] In the case of the ability to form cholesterol, triglyceride and glucose, the lower the numerical value, the better the effect. Numerical values for a control group become reference values.
As a hepatic cell model, HepG2 cells were cultured in 10% serum-containing high glucose media, and then treated with each of the compounds for 24 hours. Then, the cells were treated with 0.5 uCi 14C-lactate and 10 mM L-lactate, and cultured for 4 hours. After cultivation, the media of the cells were removed, and the cells were washed with PBS, treated with 0.1N NaOH and left to stand at room temperature for 1 hour. Then, the cells were neutralized with 1N HCl, and the amount of glucose formed in the cells was measured with a liquid scintillation counter. […] A lower measurement value means a stronger blood glucose lowering activity.

HepG2 cells [2] = test: Measurement of cholesterol synthesis ability (Amplex red fluorescence); format: cell-based
Source text: as §1
(§2) As a hepatic cell model, HepG2 cells were used to measure cholesterol synthesis inhibitory ability, which is the important function of AMPK. The hepatic cell model HepG2 cells were cultured in 1% serum-containing media for 24 hours, and then treated with each of the compounds for 24 hours. Then, the cells were disrupted with lysis buffer (0.1 M potassium phosphate, pH 7.4, 0.05 M NaCl, 5 mM cholic acid, 0.1% Triton X-100). To the disrupted cells, the same volume of a reaction solution (2 U/ml cholesterol oxidizing agent, 2 U/ml peroxidase, 0.2 U/ml cholesterol esterase, and 300 μM Amplex red as a fluorescent factor) was added and allowed to react at 37° C. for 30 minutes. After completion of the reaction, the cells were measured with a fluorometer at a wavelength of 560/590 nm (ex/em), thus quantifying the amount of […] formed in the cells. A lower measurement value means an increased lipid production inhibitory ability.

C2C12 cells = test: Measurement of glucose absorption (3H-deoxy-glucose); format: cell-based
Source text: as §1
As a muscle cell model, C2C12 cells were induced to differentiate into muscle cells in 2% bovine fetal serum for 6 days. The C2C12 cells which differentiated into muscle cells were treated with each of the compounds in serum-free low glucose media, and then cultured with 1 μM of insulin for 24 hours. After cultivation, the cells were treated with 1 μCi 3H-deoxy-glucose and 10 μM deoxy-glucose at 37° C. for 15 minutes. After treatment, the media were removed, and the cells were washed twice with PBS. The washed cells were treated with 0.1 N NaOH and neutralized with 1N HCl. The amount of glucose absorbed into the cells was measured with a liquid scintillation counter. The effect of the compounds was determined by selecting a compound showing an absorption effect of at least 200%, dividing the absorption effect by the average percent of the control group, and then multiplying the divided value by […]. A higher measurement value means a stronger ability to reduce insulin resistance.

HepG2 cells [3] = test: Measurement of triglyceride (Amplex red fluorescence); format: cell-based; conditions: 24 h treatment, lower is better
Method: as §1
as §2, with “model,” for “model, HepG2 cells were used to measure cholesterol synthesis inhibitory ability, which is the important function of AMPK. The hepatic cell model”, “(0.1M” for “(0.1 M”, “(0.76” for “(2”, “glycerol kinase, […] peroxidase, 22.2 U/ml glycerol” for “cholesterol”, “agent,” for “agent, 2 U/ml peroxidase, 0.2 U/ml cholesterol esterase,”

[4] = Homo sapiens, read-out: gluconeogenesis (glucose synthesis ability), % control
[5] = Homo sapiens, 100 uM, HepG2 cells, 24 h treatment, lower is better, read-out: cholesterol synthesis ability, % control
[6] = Mus musculus, differentiated C2C12 muscle cells, with 1 μM insulin 24 h, higher is better, read-out: glucose absorption, % control
[7] = Homo sapiens, 100 uM, read-out: triglyceride synthesis ability, % control
[8] = Homo sapiens, 100 uM, read-out: gluconeogenesis (glucose synthesis ability), % control
[9] = Mus musculus, 100 uM, differentiated C2C12 muscle cells, with 1 μM insulin 24 h, higher is better, read-out: glucose absorption, % control
[10] = Homo sapiens, 500 uM, read-out: gluconeogenesis (glucose synthesis ability), % control
[11] = Homo sapiens, 250 uM, HepG2 cells, 24 h treatment, lower is better, read-out: cholesterol synthesis ability, % control
[12] = Mus musculus, 250 uM, differentiated C2C12 muscle cells, with 1 μM insulin 24 h, higher is better, read-out: glucose absorption, % control
[13] = Homo sapiens, 250 uM, read-out: triglyceride synthesis ability, % control

Row | melting point [°C] | SMILES | activity at 100 µM (HepG2 cells [2]; [5]) [%] | activity at 100 µM (HepG2 cells [3]; [7]) [%] | activity at 100 µM (HepG2 cells [1]; [8]) [%] | activity at 100 µM (C2C12 cells; [9]) [%] | also measured
1 | 116.6 to 117.2 | CN(C)c1nc(N)nc(NCCN2CCCCC2)n1 [Example 7, N2,N2-dimethyl-N4-(2-(piperidin-1-yl)ethyl)-1,3,5-triazine-2,4,6-triamine] | 97.4 | 95.8 |  |  | activity at 200 µM (HepG2 cells [1]; [4]): 101%; activity at 200 µM (C2C12 cells; [6]): 131%
2 |  | CC(C)c1ccc(Nc2nc(N)nc(N(C)C)n2)cc1 [Example 28, N2-(4-isopropylphenyl)-N4,N4-dimethyl-1,3,5-triazine-2,4,6-triamine] | 65.9 | 43.2 | 45.4 | 173 | 
3 | 271.8 to 272.8 | CN(C)c1nc(N)nc(N)n1 [Example 11, N2,N2-dimethyl-1,3,5-triazine-2,4,6-triamine] | 97.7 | 97.6 |  |  | activity at 200 µM (HepG2 cells [1]; [4]): 70.4%; activity at 200 µM (C2C12 cells; [6]): 106%
4 | 139 to 143 | Cc1ccc(CNc2nc(N)nc(N(C)C)n2)cc1 [Example 14, N2,N2-dimethyl-N4-(4-methylbenzyl)-1,3,5-triazine-2,4,6-triamine] | 87.8 | 92 | 75.4 | 113 | 
5 |  | CN(C)c1nc(N)nc(Nc2ccc(Cl)c(Cl)c2)n1 [Example 17, N2-(3,4-dichlorophenyl)-N4,N4-dimethyl-1,3,5-triazine-2,4,6-triamine] | 11.3 | -12.1 | 15.2 | 7.29 | 
6 | 122 to 143 | Cc1ccccc1Nc1nc(N)nc(N(C)C)n1 [Example 33, N2,N2-dimethyl-N4-o-tolyl-1,3,5-triazine-2,4,6-triamine] | 65.8 | 91.9 | 95.6 | 148 | 
7 | 169.9 to 171.8 | Nc1nc(N)nc(NCCc2ccccc2)n1 [Example 13, N2-phenethyl-1,3,5-triazine-2,4,6-triamine] | 92.3 | 103 |  |  | activity at 200 µM (HepG2 cells [1]; [4]): 99.6%; activity at 200 µM (C2C12 cells; [6]): 115%
8 | 140.8 to 142.9 | Nc1nc(N)nc(NCc2ccc3c(c2)OCO3)n1 [Example 6, N2-(benzo[d][1,3]dioxol-5-ylmethyl)-1,3,5-triazine-2,4,6-triamine] |  |  |  |  | activity at 500 µM (HepG2 cells [1]; [10]): 82.3%; activity at 250 µM (HepG2 cells [2]; [11]): 92.7%; activity at 250 µM (C2C12 cells; [12]): 114%; activity at 250 µM (HepG2 cells [3]; [13]): 108%
9 | 173 to 176 | COc1ccc(Nc2nc(N)nc(N(C)C)n2)cc1 [Example 15, N2,N2-dimethyl-N4-(4-methoxyphenyl)-1,3,5-triazine-2,4,6-triamine] | 57.1 | 53.6 | 114 | 91.1 | 
10 | 282 to 290 | CN(C)c1nc(N)nc(Nc2ccc3c(c2)-c2ccccc2C3)n1 [Example 25, N2-(9H-fluoren-3-yl)-N4,N4-dimethyl-1,3,5-triazine-2,4,6-triamine] | 76.8 | 30.2 | 49.5 | 107 | effect on cholesterol synthesis, times better than the control group (HepG2 cells [2]; by comparison of used amounts vs control group (metformin 2 mM)): at least 20 times
11 |  | CCc1ccccc1Nc1nc(N)nc(N(C)C)n1 [Example 36, N2-(2-ethylphenyl)-N4,N4-dimethyl-1,3,5-triazine-2,4,6-triamine] | 51 | 75.1 | 42.1 | 100 | 
12 |  | CN(C)c1nc(N)nc(NCc2ccc3c(c2)OCO3)n1 [Example 1, N2-(benzo[d][1,3]dioxol-5-ylmethyl)-N4,N4-dimethyl-1,3,5-triazine-2,4,6-triamine] |  |  |  |  | activity at 500 µM (HepG2 cells [1]; [10]): 105%; activity at 250 µM (HepG2 cells [2]; [11]): 81.1%; activity at 250 µM (C2C12 cells; [12]): 133%; activity at 250 µM (HepG2 cells [3]; [13]): 103%
13 |  | CN(C)C(=N)N=C(N)N [Metformin, reference compound] |  |  |  |  | activity at 2000 µM (HepG2 cells [1]; Homo sapiens, 2 mM, read-out: gluconeogenesis (glucose synthesis ability), % control): 52.7%; activity at 2000 µM (HepG2 cells [2]; Homo sapiens, 2 mM, HepG2 cells, 24 h treatment, lower is better, read-out: cholesterol synthesis ability, % control): 83.5%; activity at 2000 µM (C2C12 cells; Mus musculus, 2 mM, differentiated C2C12 muscle cells, with 1 μM insulin 24 h, higher is better, read-out: glucose absorption, % control): 329%; activity at 2000 µM (HepG2 cells [3]; Homo sapiens, 2 mM, read-out: triglyceride synthesis ability, % control): 70.6%
14 | 193.7 to 219.6 | CN(C)c1nc(N)nc(NCc2ccc3c(c2)OCO3)n1 (as salt: HCl) [Example 1, N2-(benzo[d][1,3]dioxol-5-ylmethyl)-N4,N4-dimethyl-1,3,5-triazine-2,4,6-triamine] |  |  |  |  | 
15 |  | CN(C)c1nc(N)nc(Nc2cccc(Br)c2)n1 [Example 2, N2-(3-bromophenyl)-N4,N4-dimethyl-1,3,5-trizaine-2,4,6-triamine] |  |  |  |  | gluconeogenesis (glucose synthesis ability), % control (HepG2 cells [1]; 100 uM): 51.89%; cholesterol synthesis ability, % control (HepG2 cells [2]; 100 uM, HepG2 cells, 24 h treatment, lower is better): 23.15%; glucose absorption, % control (C2C12 cells; 100 uM, differentiated C2C12 muscle cells, with 1 μM insulin 24 h, higher is better): 35.23%; triglyceride synthesis ability, % control (HepG2 cells [3]; 100 uM): 19.11%
16 | 132 to 168 | CCCCCCc1ccc(Nc2nc(N)nc(N(C)C)n2)cc1 [Example 42, N2-(4-hexylphenyl)-N4,N4-dimethyl-1,3,5-triazine-2,4,6-triamine] | 39 | 34.3 |  |  | 
17 |  | CN(C)c1nc(N)nc(NCc2cccnc2)n1 [Example 4, N2,N2-dimethyl-N4-(2-pyridine-3-ylmethyl)-1,3,5-triazine-2,4,6-triamine] |  |  |  |  | gluconeogenesis (glucose synthesis ability), % control (HepG2 cells [1]; 500 uM): 92.14%; cholesterol synthesis ability, % control (HepG2 cells [2]; 250 uM, HepG2 cells, 24 h treatment, lower is better): 93.66%; glucose absorption, % control (C2C12 cells; 250 uM, differentiated C2C12 muscle cells, with 1 μM insulin 24 h, higher is better): 143.92%; triglyceride synthesis ability, % control (HepG2 cells [3]; 250 uM): 99.48%
18 |  | CN(C)c1nc(N)nc(N2CCCC2)n1 [Example 35, N2,N2-dimethyl-6-(pyrrolidin-1-yl)-1,3,5-triazine-2,4-diamine] | 69 | 99.9 | 91.4 | 285 | effect of reducing insulin resistance, times better than the control group (C2C12 cells; absorption effect divided by average percent of control group (metformin 2 mM), multiplied by 20): about 17 times
19 | 253 to 263 | CN(C)c1nc(N)nc(Nc2ccc(C(C)(C)C)cc2)n1 [Example 22, N2-(4-tert-butylphenyl)-N4,N4-dimethyl-1,3,5-triazine-2,4,6-triamine] | 53 | 34.4 |  |  | 
20 |  | CN(C)c1nc(N)nc(Nc2ccccc2F)n1 [Example 30, N2-(2-fluorophenyl)-N4,N4-dimethyl-1,3,5-triazine-2,4,6-triamine] | 75.7 | 81.1 | 85.5 | 133 | 

Source: patent US8722674B2, “1,3,5-triazine-2,4,6-triamine compound or pharmaceutical acceptable salt thereof, and pharmaceutical composition comprising the same” (Hanall Biopharma Co., Ltd., priority 2007, dated 2014)
